Key:
MMP-2 [1] = target: T1, MMP-2 (Homo sapiens, UniProt P08253); assay: K(obs) of individual phage substrates (set of 1369); type: biochemical; details: MMP2
T1 sequence (P08253 110-660): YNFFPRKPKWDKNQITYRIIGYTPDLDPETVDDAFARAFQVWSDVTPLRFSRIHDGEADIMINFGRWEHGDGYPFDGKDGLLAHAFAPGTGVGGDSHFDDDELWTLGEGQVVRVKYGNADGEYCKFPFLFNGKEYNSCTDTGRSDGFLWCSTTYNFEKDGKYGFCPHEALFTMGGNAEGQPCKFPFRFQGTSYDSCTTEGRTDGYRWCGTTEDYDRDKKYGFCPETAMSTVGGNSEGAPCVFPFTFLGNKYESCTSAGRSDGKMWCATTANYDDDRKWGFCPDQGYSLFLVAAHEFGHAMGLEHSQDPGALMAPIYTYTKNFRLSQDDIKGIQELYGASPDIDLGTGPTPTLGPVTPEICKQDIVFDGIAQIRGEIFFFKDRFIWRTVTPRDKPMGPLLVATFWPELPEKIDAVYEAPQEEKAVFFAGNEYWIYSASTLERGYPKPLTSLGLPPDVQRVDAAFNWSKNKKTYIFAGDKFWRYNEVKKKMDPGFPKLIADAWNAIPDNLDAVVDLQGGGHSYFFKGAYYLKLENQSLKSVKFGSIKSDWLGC

MMP-9 = MMP-9 (Homo sapiens, UniProt P14780); assay: as above; type: biochemical; details: MMP9
Sequence of MMP-9 (P14780 94-707): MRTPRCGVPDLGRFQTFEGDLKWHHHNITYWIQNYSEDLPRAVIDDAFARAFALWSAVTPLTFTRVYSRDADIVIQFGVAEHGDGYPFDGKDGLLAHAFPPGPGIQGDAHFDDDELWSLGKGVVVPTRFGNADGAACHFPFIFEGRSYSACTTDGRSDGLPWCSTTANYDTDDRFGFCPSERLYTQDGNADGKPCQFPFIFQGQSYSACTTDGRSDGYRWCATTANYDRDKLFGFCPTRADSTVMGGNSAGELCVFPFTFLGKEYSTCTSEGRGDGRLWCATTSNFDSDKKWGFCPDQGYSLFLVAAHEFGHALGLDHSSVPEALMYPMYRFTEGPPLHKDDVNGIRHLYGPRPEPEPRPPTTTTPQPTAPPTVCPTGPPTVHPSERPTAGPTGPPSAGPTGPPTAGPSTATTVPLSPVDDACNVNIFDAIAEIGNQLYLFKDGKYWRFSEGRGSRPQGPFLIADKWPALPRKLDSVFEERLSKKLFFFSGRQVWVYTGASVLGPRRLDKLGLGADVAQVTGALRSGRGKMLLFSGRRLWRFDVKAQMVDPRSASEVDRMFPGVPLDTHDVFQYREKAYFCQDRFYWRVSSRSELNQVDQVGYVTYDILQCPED

MMP-2 [2] = assay: Substrate phage display with NGS: relative probability (RP) of P3-P1' tetramer clusters; type: biochemical, human; details: MMP2;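 further: ratio of tetramer probability after protease selection to that in naive phage library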
[3] = individual phage substrate of the set of 1369 peptides, cleavage position marked by '-'
[4] = individual phage substrate of the set of 1369 peptides, dash in the sequence marks the cleavage position
[5] = RP of the P3-P1' tetramer contained in the substrate
[6] = individual phage substrates, set of 1369 peptides, cleavage position marked by hyphen in sequence
[7] = individual phage substrates, set of 1369 peptides, hyphen in sequence marks cleavage position
[8] = RP of the P3-P1' tetramer contained in the substrate (substrate phage display with NGS)

Substance	Kobs (MMP-2 [1]; [3])	Kobs (MMP-9; [4])	relative probability (RP) (MMP-2 [2]; [5])	Kobs (MMP-2 [1]; [6])	Kobs (MMP-9; [7])	relative probability (RP) (MMP-2 [2]; [8])
GVYAH-LLTAS	323.705 M⁻¹ s⁻¹	171.876 M⁻¹ s⁻¹	18.7061	–	–	–
HAPLN-FTASG	12792.1 M⁻¹ s⁻¹	10866.7 M⁻¹ s⁻¹	28.3679	–	–	–
GYFGN-LRTAS	–	–	–	7015.91 M⁻¹ s⁻¹	0 M⁻¹ s⁻¹	26.0275
GAFRH-LRTAS	201.585 M⁻¹ s⁻¹	0 M⁻¹ s⁻¹	3.942	–	–	–
GVYQG-LRTAS	1373.05 M⁻¹ s⁻¹	799.117 M⁻¹ s⁻¹	4.332	–	–	–
ARSYN-LTASG	3165.09 M⁻¹ s⁻¹	3964.21 M⁻¹ s⁻¹	6.093	–	–	–
GLPLN-WRTAS	–	–	–	2545.25 M⁻¹ s⁻¹	3964.21 M⁻¹ s⁻¹	28.8158
ACIWS-LTASG	27.918 M⁻¹ s⁻¹	355.093 M⁻¹ s⁻¹	5.404	–	–	–
GNSWG-LRTAS	292.668 M⁻¹ s⁻¹	690.17 M⁻¹ s⁻¹	0.1389	–	–	–
GFFLH-LTTAS	–	–	–	0 M⁻¹ s⁻¹	0 M⁻¹ s⁻¹	0.8093
MSWSA-LTASG	12792.1 M⁻¹ s⁻¹	113.394 M⁻¹ s⁻¹	25.8217	–	–	–
GSAVG-LRTAS	12792.1 M⁻¹ s⁻¹	5667.28 M⁻¹ s⁻¹	28.9998	–	–	–
SGLRH-LSNTA	–	–	–	386.839 M⁻¹ s⁻¹	762.325 M⁻¹ s⁻¹	22.7972
SGFRN-LRITA	–	–	–	0 M⁻¹ s⁻¹	201.585 M⁻¹ s⁻¹	9.821
SGVMG-IRITA	484.315 M⁻¹ s⁻¹	1418.96 M⁻¹ s⁻¹	12.4242	–	–	–
TFARS-LTASG	–	–	–	8941.32 M⁻¹ s⁻¹	5889.62 M⁻¹ s⁻¹	17.186
AGVRY-LTASG	–	–	–	5889.62 M⁻¹ s⁻¹	7815.03 M⁻¹ s⁻¹	18.3724
GCPHM-MTASG	–	–	–	654.784 M⁻¹ s⁻¹	1327.88 M⁻¹ s⁻¹	14.968
YEPRN-VTASG	–	–	–	12792.1 M⁻¹ s⁻¹	10866.7 M⁻¹ s⁻¹	26.6015
GFPQS-LMTAS	–	–	–	10866.7 M⁻¹ s⁻¹	12792.1 M⁻¹ s⁻¹	33.5105
WLPRA-VTASG	12792.1 M⁻¹ s⁻¹	12792.1 M⁻¹ s⁻¹	28.3444	–	–	–
LNPAF-LTASG	12792.1 M⁻¹ s⁻¹	8941.32 M⁻¹ s⁻¹	32.4224	–	–	–
RTPVG-LTASG	–	–	–	12792.1 M⁻¹ s⁻¹	8321.48 M⁻¹ s⁻¹	35.2016
GFPLM-LTASG	9740.44 M⁻¹ s⁻¹	12792.1 M⁻¹ s⁻¹	25.0435	–	–	–
ENFLH-LTASG	–	–	–	142.481 M⁻¹ s⁻¹	27.918 M⁻¹ s⁻¹	0.8093
GISQS-LITAS	–	–	–	0 M⁻¹ s⁻¹	0 M⁻¹ s⁻¹	5.003
YSPMD-YTASG	1660.66 M⁻¹ s⁻¹	12792.1 M⁻¹ s⁻¹	10.9087	–	–	–

Substance	Kobs (MMP-2 [1]; [3])	Kobs (MMP-9; [4])	relative probability (RP) (MMP-2 [2]; [5])	Kobs (MMP-2 [1]; [6])	Kobs (MMP-9; [7])	relative probability (RP) (MMP-2 [2]; [8])
TQVFG-LTASG	–	–	–	2687.73 M⁻¹ s⁻¹	5461.43 M⁻¹ s⁻¹	12.5523
TKWLA-LTASG	–	–	–	3079.62 M⁻¹ s⁻¹	3637.04 M⁻¹ s⁻¹	1.218
GMARF-LSTAS	–	–	–	2097.28 M⁻¹ s⁻¹	912.511 M⁻¹ s⁻¹	8.577
GAPRS-LVTAS	12792.1 M⁻¹ s⁻¹	12792.1 M⁻¹ s⁻¹	33.3704	–	–	–
EQAWY-LTASG	–	–	–	1154.21 M⁻¹ s⁻¹	726.013 M⁻¹ s⁻¹	0.09636
MKWAA-YTASG	12792.1 M⁻¹ s⁻¹	585.336 M⁻¹ s⁻¹	15.6012	–	–	–
GSGAH-LQLST	171.876 M⁻¹ s⁻¹	292.668 M⁻¹ s⁻¹	8.464	–	–	–
RRVLM-MTASG	–	–	–	171.876 M⁻¹ s⁻¹	1660.66 M⁻¹ s⁻¹	2.736
GVYRH-MRTAS	–	–	–	0 M⁻¹ s⁻¹	0 M⁻¹ s⁻¹	0.3212
YNWRH-LTASG	–	–	–	799.117 M⁻¹ s⁻¹	619.843 M⁻¹ s⁻¹	0.4087
SGPVN-LISTA	6131.32 M⁻¹ s⁻¹	12792.1 M⁻¹ s⁻¹	34.508	–	–	–
GRMLH-LRTAS	451.441 M⁻¹ s⁻¹	836.403 M⁻¹ s⁻¹	8.417	–	–	–
GYIQS-LFTAS	–	–	–	5461.43 M⁻¹ s⁻¹	0 M⁻¹ s⁻¹	25.2682
TTLRW-WTASG	–	–	–	1816.46 M⁻¹ s⁻¹	690.17 M⁻¹ s⁻¹	6.313
GSVWA-LTASG	–	–	–	1870.4 M⁻¹ s⁻¹	4922.1 M⁻¹ s⁻¹	12.7502
RTPMA-MTASG	2837.92 M⁻¹ s⁻¹	3637.04 M⁻¹ s⁻¹	30.2676	–	–	–
GIPYH-LATAS	1816.46 M⁻¹ s⁻¹	7015.91 M⁻¹ s⁻¹	27.2418	–	–	–
EMYGN-MTASG	–	–	–	5667.28 M⁻¹ s⁻¹	451.441 M⁻¹ s⁻¹	13.8836
SEPFG-LTASG	12792.1 M⁻¹ s⁻¹	12792.1 M⁻¹ s⁻¹	31.7131	–	–	–
SLVRF-LTASG	12792.1 M⁻¹ s⁻¹	12792.1 M⁻¹ s⁻¹	15.0438	–	–	–
SGPLG-ITLTA	–	–	–	12792.1 M⁻¹ s⁻¹	12792.1 M⁻¹ s⁻¹	33.936
DRPNY-LTASG	4082.43 M⁻¹ s⁻¹	1196.62 M⁻¹ s⁻¹	17.2533	–	–	–
SGPLG-LSGTA	12792.1 M⁻¹ s⁻¹	12792.1 M⁻¹ s⁻¹	35.3536	–	–	–
NVPVW-MTASG	5461.43 M⁻¹ s⁻¹	5461.43 M⁻¹ s⁻¹	25.8126	–	–	–
GQPRG-LRTAS	12792.1 M⁻¹ s⁻¹	12792.1 M⁻¹ s⁻¹	35.2511	–	–	–
LSHAW-LTASG	–	–	–	12792.1 M⁻¹ s⁻¹	56.119 M⁻¹ s⁻¹	27.1428
